{"source": "patent US12191014B1", "about": "“Personal analysis and chronotherapy” (CERNER INNOVATION, INC., priority 2013, dated 2025)", "key": {"[1]": {"tested_on": "blood pressure of patients", "conditions": "cited from earlier work; for effect on asleep versus awake SBP and DBP means: ACEI, evening or bedtime administration; for therapeutic effect on sleeping BP: ARB, bedtime in comparison with morning ingestion schedule"}, "hypertensive subjects": {"tested_on": "hypertensive subjects", "test": "32-day losartan administration-time study with NIBP/SBP time series and spectral analysis", "assay_type": "in vivo, human", "experimental": "Because dipping status is determined by (a) sleep BP and (b) awake BP, it might be expected that the 2 determinants would have equal weight. […] Although there is evidence that an extreme dipping pattern may lead to nocturnal cerebral ischemia, there is also evidence that nondippers are at greater risk for cardiovascular morbidity than dippers, both for cardiovascular events and for progression of kidney disease. […] This is exactly what we have observed with losartan.\nTo illustrate the advantages of the present technology, a, a series of alternate schedules for administering a single, strong 100 mg oral dose of the rapidly-absorbed angiotensin receptor blocker, losartan, were explored (03:00; 09:00; 21:00; etc.). Subjects […] informed consent according to applicable U.S. law and regulations. Baseline drug-holiday NIBP measurements were collected in each subject for a period of 32 days. Subjects who had other comorbid health conditions besides hypertension were excluded, as were subjects who required two or more antihypertensive medications for blood pressure control.\nUnder the experimental protocol, a two-week wash-out interval was interposed between a 32-day treatment period with one administration time and the next 32-day period. Subjects were randomized as to which administration time sequence.\nAll of the 32-day timing regimens were monitored so as to establish administration timing compliance with a timing precision of +15 min. […]\nRecords were randomly selected from a patient health records data warehouse, which is derived from Cerner electronic health record (EHR) from 100% of episodes of care that are incident upon the participating health institutions. […] The SBP data is cast into the form of a time series, and analyzed the sequences using the open-source R statistical packages psd, seewave, and tuneR. […]"}, "blood pressure patient": {"tested_on": "blood pressure patient", "test": "Example 1: evaluation pack trial of Losartan formulations against diagnostic targets", "assay_type": "in vivo, human", "experimental": "Example 1: A blood pressure patient is currently medicated, but appears to be medicated at an insufficient level. For example, the patient has been taking 50 mg of Losartan at various ingestion times, but has experienced some severe headaches and nose bleeds in the afternoon particularly on stressful days.\nIn an embodiment, the evaluation package includes four different formulations labeled A, B, 3A, and 5A arranged in separable columns of constant medication 1027, 1028, 1025, 1030, and 1010, that may be separated by manually tearing package 1000 along perforated divisions 1096, 1097, 1098, and 1099. In an embodiment, dose pack 1000 is formed by selectively applying an adhesive to a foil backing layer to adhere the foil to transparent plastic front layer 1012 containing pills such as 1013 as shown in FIG. 10. In an embodiment, a label such as “5A” is provided on the dose itself such as label 1015 on pill 1013 as viewable in dose display container 1014, and/or on the packaging in label 1011 of constant formulation dosepack represented in column 1010. Advantageously, a patient tears along a perforation 1096 while taking dose A, and only need carry a single column such as 1027 while taking an “A” formulation dose. Similarly columns 1026, 1025, 1030 and 1010 are separable by perforations 1096, 1097, 1098 and 1099. An embodiment of a constant formulation dose pack has 32 cycles of dosage. An embodiment of a constant formulation dose pack has 10 cycles of dosage.\nIn an embodiment, the “A” formulation corresponds to a pulsatile application of 100 mg Losartan that applies medication nominally 20 minutes after ingestion, the “3A” formulation delays application of 100 mg of Losartan to 3 hours after ingestion. The “5A” formulation delays application of 100 mg of Losartan to 5 hours after ingestion. The “B” formulation is 5 mg amlodipine besylate that applies medication approximately 5 hours after ingestion. In an embodiment the dose sequence spectrum is chosen to center the medication application around a typical peak level. For example, with blood pressure medicine application, a peak plasma level between midnight and 6 a.m. would provide dosage delays centered about 3 a.m. for a patient who is thought to be a normal dipper. An embodiment puts at least one dosage application time in a period of normal peak, for example, between midnight and 6 a.m. for blood pressure application. In an embodiment, different dose levels are provided, such as a trial with 50 mg Losartan, or 150 mg Losartan for the same application time.\nTurning now to FIG. 2, there is depicted in 100 a method for a computer to execute a method of personal health evaluation. At 205, a patient manager such as 140 is configured through a clinician evaluation template to present results to the patient on patient interface 141 after the clinician has released the information to the patient for viewing, explanation. In an embodiment a template includes a monitor identifier, a patient identifier, such as social security number and/or full name and zip code, and an identification code for the dose pack such as product ID code “AB27YAM” shown in identifier 1050. In an embodiment the template includes a set of patient instructions to guide patient through the use of the monitor device. In an embodiment, the patient is instructed to wear the monitor continuously with unmonitored stretches of no greater than a half an hour. […] In an embodiment, the template includes information such as gender (male or female), weight, height, body mass index, other conditions, other mediations, patient history, patient age, a diagnostic target, a clinical input to be monitored, a period statistic to be measured, a period variability measure to be evaluated, a variation, etc. […]"}}}
{"compound": "CCOC(=O)[C@H](CCc1ccccc1)N[C@H]1CCc2ccccc2N(CC(=O)O)C1=O", "note": "[benazepril]", "values": [{"measurement": "effect on asleep versus awake SBP and DBP means", "setting": "[1]", "value": "more marked effect on the asleep than awake"}]}
{"compound": "C[C@H](CS)C(=O)N1CCC[C@H]1C(=O)O", "note": "[captopril]", "values": [{"measurement": "effect on asleep versus awake SBP and DBP means", "setting": "[1]", "value": "more marked effect on the asleep than awake"}]}
{"compound": "CCOC(=O)[C@H](CCc1ccccc1)N[C@@H](C)C(=O)N1CCC[C@H]1C(=O)O", "note": "[enalapril]", "values": [{"measurement": "effect on asleep versus awake SBP and DBP means", "setting": "[1]", "value": "more marked effect on the asleep than awake"}]}
{"compound": "CCCCC1=NC2(CCCC2)C(=O)N1Cc1ccc(-c2ccccc2-c2nnn[nH]2)cc1", "note": "[irbesartan]", "values": [{"measurement": "therapeutic effect on sleeping BP", "setting": "[1]", "value": "greater therapeutic effect on sleeping BP"}]}
{"compound": "NCCCC[C@H](N[C@@H](CCc1ccccc1)C(=O)O)C(=O)N1CCC[C@H]1C(=O)O", "note": "[lisinopril]", "values": [{"measurement": "effect on asleep versus awake SBP and DBP means", "setting": "[1]", "value": "more marked effect on the asleep than awake"}]}
{"compound": "CCCCc1nc(Cl)c(CO)n1Cc1ccc(-c2ccccc2-c2nn[nH]n2)cc1", "note": "[losartan]", "values": [{"measurement": "therapeutic effect on sleeping BP", "setting": "[1]", "value": "greater therapeutic effect on sleeping BP"}, {"measurement": "reduction in average blood pressure", "setting": "hypertensive subjects; 100 mg oral dose, all dosing schedules (03:00; 09:00; 21:00), 32-day treatment periods", "value": "reduction in average blood pressure"}, {"measurement": "phase-slips between circadian BP and drug administration", "setting": "hypertensive subjects; 100 mg, 21:00 administration time", "value": "occasionally detected"}, {"measurement": "normalization of dipping pattern", "setting": "hypertensive subjects; administration such that peak plasma levels occur prior to midnight or prior to 06:00", "value": "can normalize extreme dippers, non-dippers, and risers and convert them to normal dippers"}, {"measurement": "dipping pattern", "setting": "blood pressure patient; 100 mg at 21:00", "value": "achieved a normal dipping pattern"}, {"measurement": "entropy relative to untreated regimen", "setting": "blood pressure patient; 100 mg at 21:00", "value": "greatly improved entropy"}, {"measurement": "entropy versus target", "setting": "blood pressure patient; 100 mg at 21:00", "value": "acceptable entropy"}, {"measurement": "max SBP versus target", "setting": "blood pressure patient; 100 mg at 21:00", "value": "unacceptable max SBP"}, {"measurement": "range of SBP versus target", "setting": "blood pressure patient; 100 mg at 21:00", "value": "unacceptable range"}, {"measurement": "rolloff", "setting": "blood pressure patient; 100 mg at 21:00", "value": "acceptable rolloff improvement"}, {"measurement": "significance versus target", "setting": "blood pressure patient; 100 mg at 21:00", "value": "acceptable significance"}, {"measurement": "stability of rhythm", "setting": "blood pressure patient; 100 mg at 21:00", "value": "improved stability of rhythm"}, {"measurement": "desired targets met", "setting": "blood pressure patient; 100 mg at 21:00, compared with untreated regimen", "value": "5 of 7"}]}
{"compound": "CCC[C@H](N[C@@H](C)C(=O)N1[C@H](C(=O)O)C[C@@H]2CCCC[C@@H]21)C(=O)OCC", "note": "[perindopril]", "values": [{"measurement": "effect on asleep versus awake SBP and DBP means", "setting": "[1]", "value": "more marked effect on the asleep than awake"}]}
{"compound": "CCOC(=O)[C@H](CCc1ccccc1)N[C@@H](C)C(=O)N1Cc2ccccc2C[C@H]1C(=O)O", "note": "[quinapril]", "values": [{"measurement": "effect on asleep versus awake SBP and DBP means", "setting": "[1]", "value": "more marked effect on the asleep than awake"}]}
{"compound": "CCOC(=O)[C@H](CCc1ccccc1)N[C@@H](C)C(=O)N1[C@H](C(=O)O)C[C@@H]2CCC[C@@H]21", "note": "[ramipril]", "values": [{"measurement": "effect on asleep versus awake SBP and DBP means", "setting": "[1]", "value": "more marked effect on the asleep than awake"}]}
{"compound": "CCOC(=O)[C@H](CCc1ccccc1)N[C@@H](C)C(=O)N1CC2(C[C@H]1C(=O)O)SCCS2", "note": "[spirapril]", "values": [{"measurement": "effect on asleep versus awake SBP and DBP means", "setting": "[1]", "value": "more marked effect on the asleep than awake"}]}
{"compound": "CCCc1nc2c(C)cc(-c3nc4ccccc4n3C)cc2n1Cc1ccc(-c2ccccc2C(=O)O)cc1", "note": "[telmisartan]", "values": [{"measurement": "therapeutic effect on sleeping BP", "setting": "[1]", "value": "greater therapeutic effect on sleeping BP"}]}
{"compound": "CCOC(=O)[C@H](CCc1ccccc1)N[C@@H](C)C(=O)N1[C@H](C(=O)O)C[C@H]2CCCC[C@@H]21", "note": "[trandolapril]", "values": [{"measurement": "effect on asleep versus awake SBP and DBP means", "setting": "[1]", "value": "more marked effect on the asleep than awake"}]}
{"compound": "CCCCC(=O)N(Cc1ccc(-c2ccccc2-c2nnn[nH]2)cc1)[C@H](C(=O)O)C(C)C", "note": "[valsartan]", "values": [{"measurement": "therapeutic effect on sleeping BP", "setting": "[1]", "value": "greater therapeutic effect on sleeping BP"}]}
{"compound": "C[C@H](CSC(=O)c1ccccc1)C(=O)N1C[C@@H](Sc2ccccc2)C[C@H]1C(=O)O", "note": "[zofenopril]", "values": [{"measurement": "effect on asleep versus awake SBP and DBP means", "setting": "[1]", "value": "more marked effect on the asleep than awake"}]}
